Assay results taken from patent US20040005354A1, “Oral trimethobenzamide formulations and methods” (King Pharmaceuticals, Inc., priority 2002, published 2004).

Test: Safety assessment (adverse events, laboratory tests) in the four-way crossover study
Format: in vivo, human (healthy subjects)
Excerpt: Seventy-four healthy, non-smoking, male & female subjects, 18-65 years old were enrolled in this study. A total of 68 subjects completed all the requirements of the protocol. There were no enrollment violations. However, nine of the 74 subjects began the study during the third period of the initial group of subjects. All 74 subjects who received at least one dose of study medication were included in the safety analysis.
This study was a single center, randomized, open-label, 4-way crossover study in healthy subjects. Dosing was administered in the fasted state. Seventy-four (74) subjects were randomized into the study. All seventy-four subjects received one or more doses of study medication and are therefore included in the safety assessment. On Treatment Day 1 of the first treatment period, each subject was randomized to receive one of four possible study treatment sequences. The treatment groups consisted of the four treatments administered sequentially as DCAB, ADBC, BACD or CBDA. These treatments are shown below.
A signed informed consent was obtained from each subject. For screening purposes, the following procedures were required of each subject and were performed by the clinical site within 30 days prior to the study: a complete physical examination including a medical history, vital signs, clinical laboratory safety tests on blood and urine, medications taken prior to and during the study, and a serum pregnancy test for female subjects.
During the treatments, temperature, blood pressure, heart rate and respiratory rate were monitored as a safety measure. A physical examination and clinical laboratory tests were repeated at the completion of the study. Subjects were observed and questioned throughout the study for the occurrence of any adverse events.
A total of 28 adverse events (AEs) were experienced; 27 were treatment emergent. Twenty-one (21) of these were assessed as related to study treatment. All related AEs are known to occur with trimethobenzamide and were primarily mild or moderate in intensity. One (1) severe AE occurred in one subject which was judged as unrelated to study treatment-severe pharyngitis. […] A summary of treatment emergent adverse events (AEs) is presented in Table 6 using the preferred medical term.

With “N-[2-(dimethylamino)-ethoxy]-3,4,5-trimethoxybenzamide hydrochloride [trimethobenzamide hydrochloride]” the “NAUSEA AND VOMITING, subjects n” value (sequence B A C D (N = 18)) was 0, the “NAUSEA, subjects %” value (sequence B A C D (N = 18)) was 0.0% and the “NAUSEA, subjects n” value (sequence B A C D (N = 18)) was 0. The “Number of Subject With At Least one AE, %” value (sequence B A C D (N = 18)) was 22.2%, the “Number of Subject With No AE, %” value (sequence B A C D (N = 18)) was 77.8% and the “PARESTHESIA, subjects %” value (sequence B A C D (N = 18)) was 11.1%. For the same substance, the “PARESTHESIA, subjects n” value (sequence B A C D (N = 18)) was 2, the “PHARYNGITIS, subjects %” value (sequence B A C D (N = 18)) was 0.0% and the “PHARYNGITIS, subjects n” value (sequence B A C D (N = 18)) was 0. The “RASH, subjects %” value (sequence B A C D (N = 18)) was 5.6%, the “RASH, subjects n” value (sequence B A C D (N = 18)) was 1 and the “ABDOMINAL PAIN, subjects %” value (sequence C B D A (N = 18)) was 0.0%. The “ABDOMINAL PAIN, subjects n” value (sequence C B D A (N = 18)) was 0, the “CONJUNCTIVITIS, subjects %” value (sequence C B D A (N = 18)) was 0.0% and the “CONJUNCTIVITIS, subjects n” value (sequence C B D A (N = 18)) was 0. The “DIARRHEA, subjects %” value (sequence C B D A (N = 18)) was 5.6%, the “DIARRHEA, subjects n” value (sequence C B D A (N = 18)) was 1 and the “DIZZINESS, subjects %” value (sequence C B D A (N = 18)) was 0.0%. The “DIZZINESS, subjects n” value (sequence C B D A (N = 18)) was 0, the “EDEMA, PALMAR, subjects %” value (sequence C B D A (N = 18)) was 0.0% and the “EDEMA, PALMAR, subjects n” value (sequence C B D A (N = 18)) was 0. The “ERYTHEMA, EXTERNAL NOSE, subjects %” value (sequence C B D A (N = 18)) was 5.6%, the “ERYTHEMA, EXTERNAL NOSE, subjects n” value (sequence C B D A (N = 18)) was 1 and the “ERYTHEMA, PALMAR, subjects %” value (sequence C B D A (N = 18)) was 0.0%. For the same substance, the “ERYTHEMA, PALMAR, subjects n” value (sequence C B D A (N = 18)) was 0, the “HEADACHE, subjects %” value (sequence C B D A (N = 18)) was 16.7% and the “HEADACHE, subjects n” value (sequence C B D A (N = 18)) was 3. The “HYPOTONIA, subjects %” value (sequence C B D A (N = 18)) was 5.6%, the “HYPOTONIA, subjects n” value (sequence C B D A (N = 18)) was 1 and the “INJECTION SITE REACTION, subjects %” value (sequence C B D A (N = 18)) was 0.0%. The “INJECTION SITE REACTION, subjects n” value (sequence C B D A (N = 18)) was 0, the “LARYNGISMUS, subjects %” value (sequence C B D A (N = 18)) was 0.0% and the “LARYNGISMUS, subjects n” value (sequence C B D A (N = 18)) was 0. The “LEG CRAMPS, subjects %” value (sequence C B D A (N = 18)) was 0.0%, the “LEG CRAMPS, subjects n” value (sequence C B D A (N = 18)) was 0 and the “NAUSEA AND VOMITING, subjects %” value (sequence C B D A (N = 18)) was 0.0%. For the same substance, the “NAUSEA AND VOMITING, subjects n” value (sequence C B D A (N = 18)) was 0, the “NAUSEA, subjects %” value (sequence C B D A (N = 18)) was 0.0% and the “NAUSEA, subjects n” value (sequence C B D A (N = 18)) was 0. For the same substance, the “Number of Subject With At Least one AE, %” value (sequence C B D A (N = 18)) was 22.2%, the “Number of Subject With No AE, %” value (sequence C B D A (N = 18)) was 77.8% and the “PARESTHESIA, subjects %” value (sequence C B D A (N = 18)) was 0.0%. The “PARESTHESIA, subjects n” value (sequence C B D A (N = 18)) was 0, the “PHARYNGITIS, subjects %” value (sequence C B D A (N = 18)) was 0.0% and the “PHARYNGITIS, subjects n” value (sequence C B D A (N = 18)) was 0. The “RASH, subjects %” value (sequence C B D A (N = 18)) was 0.0%, the “RASH, subjects n” value (sequence C B D A (N = 18)) was 0 and the “ABDOMINAL PAIN, subjects %” value (sequence D C A B (N = 18)) was 0.0%. The “ABDOMINAL PAIN, subjects n” value (sequence D C A B (N = 18)) was 0, the “CONJUNCTIVITIS, subjects %” value (sequence D C A B (N = 18)) was 0.0% and the “CONJUNCTIVITIS, subjects n” value (sequence D C A B (N = 18)) was 0. The “DIARRHEA, subjects %” value (sequence D C A B (N = 18)) was 0.0%, the “DIARRHEA, subjects n” value (sequence D C A B (N = 18)) was 0 and the “DIZZINESS, subjects %” value (sequence D C A B (N = 18)) was 0.0%. The “DIZZINESS, subjects n” value (sequence D C A B (N = 18)) was 0, the “EDEMA, PALMAR, subjects %” value (sequence D C A B (N = 18)) was 0.0% and the “EDEMA, PALMAR, subjects n” value (sequence D C A B (N = 18)) was 0. The “ERYTHEMA, EXTERNAL NOSE, subjects %” value (sequence D C A B (N = 18)) was 0.0%, the “ERYTHEMA, EXTERNAL NOSE, subjects n” value (sequence D C A B (N = 18)) was 0 and the “ERYTHEMA, PALMAR, subjects %” value (sequence D C A B (N = 18)) was 0.0%. For the same substance, the “ERYTHEMA, PALMAR, subjects n” value (sequence D C A B (N = 18)) was 0, the “HEADACHE, subjects %” value (sequence D C A B (N = 18)) was 16.7% and the “HEADACHE, subjects n” value (sequence D C A B (N = 18)) was 3. The “HYPOTONIA, subjects %” value (sequence D C A B (N = 18)) was 0.0%, the “HYPOTONIA, subjects n” value (sequence D C A B (N = 18)) was 0 and the “INJECTION SITE REACTION, subjects %” value (sequence D C A B (N = 18)) was 0.0%. The “INJECTION SITE REACTION, subjects n” value (sequence D C A B (N = 18)) was 0, the “LARYNGISMUS, subjects %” value (sequence D C A B (N = 18)) was 0.0% and the “LARYNGISMUS, subjects n” value (sequence D C A B (N = 18)) was 0. The “LEG CRAMPS, subjects %” value (sequence D C A B (N = 18)) was 5.6%, the “LEG CRAMPS, subjects n” value (sequence D C A B (N = 18)) was 1 and the “NAUSEA AND VOMITING, subjects %” value (sequence D C A B (N = 18)) was 0.0%. The “NAUSEA AND VOMITING, subjects n” value (sequence D C A B (N = 18)) was 0, the “NAUSEA, subjects %” value (sequence D C A B (N = 18)) was 0.0% and the “NAUSEA, subjects n” value (sequence D C A B (N = 18)) was 0. For the same substance, the “Number of Subject With At Least one AE, %” value (sequence D C A B (N = 18)) was 27.8%, the “Number of Subject With No AE, %” value (sequence D C A B (N = 18)) was 72.2% and the “PARESTHESIA, subjects %” value (sequence D C A B (N = 18)) was 5.6%. The “PARESTHESIA, subjects n” value (sequence D C A B (N = 18)) was 1, the “PHARYNGITIS, subjects %” value (sequence D C A B (N = 18)) was 0.0% and the “PHARYNGITIS, subjects n” value (sequence D C A B (N = 18)) was 0. For the same substance, the “RASH, subjects %” value (sequence D C A B (N = 18)) was 0.0% and the “RASH, subjects n” value (sequence D C A B (N = 18)) was 0.
